Reference: article PMC11494653, “Teixobactin “Swapmers” with L Tail Stereochemistry Retain Antibiotic Activity” (The Journal of Organic Chemistry, 2024)
Values after ≈ are worked out from the molar mass of the structure shown. Positions of bridges follow the written chain, without caps; N, C: chain ends. Non-standard residues stand in square brackets, D forms with d. Residues, ends and D or L forms follow the SMILES beside them. Chains are numbered I, II in the order given. d(aIle) = CC[C@H](C)[C@@H](N)C(=O)O; NMeF = CN[C@@H](Cc1ccccc1)C(=O)O; dNMeF = CN[C@H](Cc1ccccc1)C(=O)O

Columns and labels:
Format in all cases: cell-based
[1] = system: Bacillus subtilis ATCC 6051; experiment: microbe, parasite or virus in culture; settings: ATCC 6051, 16 h
Source text: (§1) We determined the MIC values of these teixobactin swapmer prodrugs against the Gram-positive bacteria Bacillus subtilis, Staphylococcus epidermidis, methicillin-susceptible Staphylococcus aureus (MSSA), and methicillin-resistant Staphylococcus aureus (MRSA) in a broth microdilution assay as described previously.[9],[10] We used the antibiotic vancomycin as a positive control and the Gram-negative bacterium Escherichia coli as a negative control. The MIC values for Lys10-teixobactin 1, Lys10-teixobactin prodrug 2, Arg10-teixobactin 6, and Arg10-teixobactin prodrug 7 are shown in Table 1 for comparison with the swapmer analogues.
(§2) We performed minimum inhibitory concentration (MIC) assays as previously described.[9] A concise procedure is detailed below.
(§3) Stock solutions of teixobactin analogues were prepared gravimetrically by dissolving an appropriate amount of peptide in 20 mg/mL sterile DMSO. The stock solutions were stored at −20 °C for subsequent experiments.
(§4) Bacillus subtilis (ATCC 6051), Staphylococcus epidermidis (ATCC 14990), methicillin-susceptible Staphylococcus aureus (MSSA) (ATCC 29213), and Escherichia coli (ATCC 10798) were cultured from glycerol stocks in Mueller-Hinton broth containing 0.002% polysorbate 80 overnight in a shaking incubator at 37 °C. Methicillin-resistant Staphylococcus aureus (MRSA) (ATCC 700698) was cultured from a glycerol stock in brain hearth infusion broth containing 0.002% polysorbate 80 overnight in a shaking incubator at 37 °C. After overnight incubation, each culture was diluted with the appropriate media (containing 0.002% polysorbate 80) to 1 × 10^6 colony-forming units (CFU)/mL as previously described.[12],[15],[16] Briefly, we have previously determined the CFU/mL for each bacterium at OD600 = 0.075 for 200 μL of bacterial culture in a 96-well plate. The OD600 of each overnight culture was determined, and then each culture was diluted to OD600 = 0.075. Cultures were further diluted to achieve 1 × 10^6 CFU/mL solutions.
(§5) Aliquots of the 20 mg/mL peptide stock solutions were diluted to make a 64 μg/mL solution in Mueller-Hinton broth containing 0.002% polysorbate 80 and a 64 μg/mL solution in brain heart infusion broth containing 0.002% polysorbate 80. The solutions were mixed by pipetting to ensure homogeneity. A 200-μL aliquot of a 64 μg/mL solution was transferred to a 96-well plate. 2-fold serial dilutions were made with media containing 0.002% polysorbate 80 across the 96-well plate to achieve a final volume of 100 μL in each well (initial concentrations ranging from 64 to 0.0625 μg/mL). A 100-μL aliquot of a 1 × 10^6 CFU/mL bacterial solution was added to each well in the series, resulting in final bacterial concentrations of 5 × 10^5 CFU/mL in each well. As 100 μL of bacteria were added to each well, the concentration of peptide was also diluted 2-fold (final concentrations ranging from 32 μg/mL to 0.03125 μg/mL). Each plate was covered with a lid and incubated at 37 °C for 16 h. The optical density measurements were measured at 600 nm using a 96-well UV–vis plate reader (MultiSkan GO, Thermo Scientific). The MIC values were taken as the lowest concentration that had no bacterial growth. MIC assays for each compound were performed in triplicate to ensure reproducibility.

[2] = system: Escherichia coli ATCC 10798; experiment: microbe, parasite or virus in culture; settings: ATCC 10798, 16 h
Source text: as §1, §2, §3, §4, §5

[3] = system: Staphylococcus aureus (MRSA) ATCC 700698; experiment: microbe, parasite or virus in culture; settings: ATCC 700698, 16 h
Source text: as §1, §2, §3, §4, §5

[4] = system: Staphylococcus aureus (MSSA) ATCC 29213; experiment: microbe, parasite or virus in culture; settings: ATCC 29213, 16 h
Source text: as §1, §2, §3, §4, §5

[5] = system: Staphylococcus epidermidis ATCC 14990; experiment: microbe, parasite or virus in culture; settings: ATCC 14990, 16 h
Source text: as §1, §2, §3, §4, §5

[6] = system: Gram-positive bacteria tested; settings: 16 h
Source text: as §1, §2, §3, §4
Aliquots of the 20 mg/mL peptide stock solutions were diluted to make a 64 μg/mL solution in Mueller-Hinton broth containing 0.002% polysorbate 80 and a 64 μg/mL solution in brain heart infusion broth containing 0.002% polysorbate 80. The solutions were mixed by pipetting to ensure homogeneity. A 200-μL aliquot of a 64 μg/mL solution was transferred to a 96-well plate. 2-fold serial dilutions were made with media containing 0.002% polysorbate 80 across the 96-well plate to achieve a final volume of 100 μL in each well (initial concentrations ranging from 64 to 0.0625 μg/mL). […] The optical density measurements were measured at 600 nm using a 96-well UV–vis plate reader (MultiSkan GO, Thermo Scientific). […]

all bacteria tested = experiment: MIC broth microdilution assay, summary over all bacteria; settings: concentration range tested up to 32 μg/mL
Source text: as §1, §2, §3
as §4, with “After overnight incubation, each culture was diluted with the appropriate media (containing 0.002% polysorbate 80) to 1 × 10^6 colony-forming units (CFU)/mL as previously described.[12],[15],[16]” left out, “Cultures were further diluted to achieve 1 × 10^6 CFU/mL solutions.” left out
Aliquots of the 20 mg/mL peptide stock solutions were diluted to make a 64 μg/mL solution in Mueller-Hinton broth containing 0.002% polysorbate 80 and a 64 μg/mL solution in brain heart infusion broth containing 0.002% polysorbate 80. […] The optical density measurements were measured at 600 nm using a 96-well UV–vis plate reader (MultiSkan GO, Thermo Scientific). […]

CC[C@H](C)[C@H](NC(=O)[C@@H](Cc1ccccc1)NC)C(=O)N[C@@H](CO)C(=O)N[C@H](CCC(N)=O)C(=O)N[C@@H](C(=O)N[C@H](C(=O)N[C@@H](CO)C(=O)N[C@H]1C(=O)N[C@@H](C)C(=O)N[C@@H](CCCCN)C(=O)N[C@@H]([C@@H](C)CC)C(=O)O[C@H]1C)[C@@H](C)CC)[C@@H](C)CC [compound 1, Lys10-teixobactin] (H-[dNMeF]IS[dQ][d(aIle)]IS[dT]AKI; ester 8-C)
MIC B. subtilis [1]: ≤ 0.0625 µg/mL
MIC Bacillus subtilis ATCC 6051 [1]: ≤0.0313 µg/mL
MIC Escherichia coli ATCC 10798 [2]: >32 µg/mL
MIC Staphylococcus aureus (MRSA) ATCC 700698 [3]: 2 µg/mL (≈ 1.64 µM)
MIC Staphylococcus aureus (MSSA) ATCC 29213 [4]: 2 µg/mL (≈ 1.64 µM)
MIC Staphylococcus epidermidis ATCC 14990 [5]: 1 µg/mL (≈ 0.822 µM)

CC[C@H](C)[C@H](NC(=O)[C@@H](Cc1ccccc1)NC)C(=O)N[C@@H](CO)C(=O)N[C@H](CCC(N)=O)C(=O)N[C@@H](C(=O)N[C@H](C(=O)OC[C@H](N)C(=O)N[C@H]1C(=O)N[C@@H](C)C(=O)N[C@@H](CCCCN)C(=O)N[C@@H]([C@@H](C)CC)C(=O)O[C@H]1C)[C@@H](C)CC)[C@@H](C)CC [compound 2, [Ile6-O-Ser7],Lys10-teixobactin] (I: H-[dNMeF]IS[dQ][d(aIle)]I / II: H-S[dT]AKI; ester I:C-II:1, II:2-II:C)
MIC B. subtilis [1]: ≤ 0.0625 µg/mL
MIC Bacillus subtilis ATCC 6051 [1]: ≤0.0313 µg/mL
MIC Escherichia coli ATCC 10798 [2]: >32 µg/mL
MIC Staphylococcus aureus (MRSA) ATCC 700698 [3]: 1 to 2 µg/mL
MIC Staphylococcus aureus (MSSA) ATCC 29213 [4]: 2 µg/mL (≈ 1.64 µM)
MIC Staphylococcus epidermidis ATCC 14990 [5]: 1 µg/mL (≈ 0.822 µM)

CC[C@H](C)[C@H](NC(=O)[C@H](CO)NC(=O)[C@@H](NC(=O)[C@@H](Cc1ccccc1)NC)[C@@H](C)CC)C(=O)N[C@@H](CCC(N)=O)C(=O)N[C@H](C(=O)OC[C@H](N)C(=O)N[C@H]1C(=O)N[C@@H](C)C(=O)N[C@@H](CCCCN)C(=O)N[C@@H]([C@@H](C)CC)C(=O)O[C@H]1C)[C@@H](C)CC [compound 3, Ile4,Gln5,[Ile6-O-Ser7],Lys10-teixobactin] (I: H-[dNMeF]ISIQI / II: H-S[dT]AKI; ester I:C-II:1, II:2-II:C)
MIC Bacillus subtilis ATCC 6051 [1]: 4 µg/mL (≈ 3.29 µM)
MIC Escherichia coli ATCC 10798 [2]: >32 µg/mL
MIC Staphylococcus aureus (MRSA) ATCC 700698 [3]: 8 µg/mL (≈ 6.58 µM)
MIC Staphylococcus aureus (MSSA) ATCC 29213 [4]: 8 µg/mL (≈ 6.58 µM)
MIC Staphylococcus epidermidis ATCC 14990 [5]: 4 µg/mL (≈ 3.29 µM)
MIC values against the Gram-positive bacteria tested [6]: 4 to 8 µg/mL
fold reduced activity compared to the unswapped analogues 1, 2, 6, and 7 [6]: 2–4 fold

CC[C@H](C)[C@H](NC(=O)[C@H](Cc1ccccc1)NC)C(=O)N[C@@H](CO)C(=O)N[C@H](C(=O)N[C@@H](CCC(N)=O)C(=O)N[C@H](C(=O)OC[C@H](N)C(=O)N[C@H]1C(=O)N[C@@H](C)C(=O)N[C@@H](CCCCN)C(=O)N[C@@H]([C@@H](C)CC)C(=O)O[C@H]1C)[C@@H](C)CC)[C@@H](C)CC [compound 4, N-Me-L-Phe1,Ile4,Gln5,[Ile6-O-Ser7],Lys10-teixobactin] (I: H-[NMeF]ISIQI / II: H-S[dT]AKI; ester I:C-II:1, II:2-II:C)
MIC Bacillus subtilis ATCC 6051 [1]: ≥32 µg/mL
MIC Escherichia coli ATCC 10798 [2]: >32 µg/mL
MIC Staphylococcus aureus (MRSA) ATCC 700698 [3]: >32 µg/mL
MIC Staphylococcus aureus (MSSA) ATCC 29213 [4]: >32 µg/mL
MIC Staphylococcus epidermidis ATCC 14990 [5]: >32 µg/mL
antibiotic activity in words against all bacteria tested (all bacteria tested): virtually inactive
